{"source": "patent US20240376081A1", "about": "“POLYMORPH AND APPLICATION OF PYRIMIDINE DERIVATIVE AND PHARMACEUTICALLY ACCEPTABLE SALT THEREOF” (SHANGHAI HAIYAN PHARMACEUTICAL TECHNOLOGY CO., LTD., priority 2021, published 2024)", "key": {"[1]": {"test": "In vivo pharmacokinetics in mice (LC/MS/MS plasma concentration)", "details": "male, ICR, mouse; for clearance: read-out: Clearance CLz", "text": "The LC/MS/MS method was applied to determine the medicament concentration in plasma at different moments after intravenous administration and oral gavage administration of Compound X of the present application in mice, respectively, to study the pharmacokinetic behavior of Compound X of the present application in mice, and to evaluate its pharmacokinetic characteristics.\nTest animals: healthy adult male ICR mice (weighing from 25 g to 40 g, 12 mice, free to drink and eat in the intravenous injection group, fasted overnight in the gavage group, and free to drink and eat 4 h after the administration of the medicament), supplied by Beijing Viton Lever Laboratory Animal Technology Co., Ltd.\nMode of administration and dosage: animals meeting the experimental requirements were selected and weighed and labeled before administration. ICR mice were administered by tail vein (2 mg/kg, 5% DMSO, pH 4.5 20% Captisol) and by gavage (10 mg/kg, 5% DMSO, pH 4.5 20% Captisol).\nBlood sample collection: Prior to blood sample collection, mice were bound and approximately […] of blood was collected from the jugular vein of each administered mouse at predetermined blood collection time points (i.v. administration: Blood was collected at 9 time points: 0.083 h, 0.25 h, 0.5 h, 1 h, 2 h, 4 h, 6 h, 7.5 h, and 24 h, respectively, after administration; and gavage administration: Blood was collected at 9 time points: 0.083 h, 0.25 h, 0.5 h, 1 h, 2 h, 4 h, 6 h, 7.5 h, and 24 h, respectively, after administration). The blood was transferred to 1.5 mL tubes preloaded with K2EDTA, and the blood plasma was separated by centrifugation for 4 min (8,000 rpm, 4° C.), which was performed within 15 min after the collection. All samples were stored in a refrigerator at −20° C. until sample analysis. LC/MS/MS method was applied to determine the medicament concentration."}, "[2]": {"test_system": "mouse colon cancer MC38(#22)-hpd-L1", "test": "In vivo potency assay in colon cancer MC38(#22)-hpd-L1 tumor bearing mice", "design": "species or system C57BL/6 mice", "details": "twice a day for 22 days", "description": "Experimental Protocol: In this test example, tumor bearing mice subcutaneously transplanted with mouse colon cancer MC38(#22)-hpd-L1 was investigated. After administration of Compound X of the present application via the oral administration, the in vivo efficacy of Compound X on colon cancer MC38(#22)-hpd-L1 tumor bearing mice were tested.\nExperimental materials: C57BL/6 mice (female); mouse colon cancer MC38(#22)-hpd-L1 cells (Shanghai Jiao Tong University cell bank), cultured in vitro in monolayer, culture conditions were using RPMI-1640 medium containing 10/% fetal bovine serum, 37° C. 5% CO2 incubator. The cells were passaged by conventional digestion treatment with trypsin-EDTA. When the cells were in the exponential growth phase with 80% to 90% saturation, the cells were harvested and counted.\nCompound Preparation: The compound was weighed and added to the solvent (40% captisol in acetate buffer, pH 3.8) to prepare a 10 mg/mL sample. 75 μL of Tecentriq solution (60 mg/mL) was taken and added to 8.925 mL of phosphate buffer solution (PBS) to make a 0.5 mg/mL phosphate solution (phosphate buffer).\nExperimental Operation: Cells were resuspended in the phosphate buffer at a density of 5×10^6 cells/mL. 0.1 mL of PBS (containing 5×10^5 MC38(#22)-hpd-L1 cells) was subcutaneously inoculated into the right back of each mouse. On the day of inoculation, the mice were randomized according to their body weights into groups of 10 mice each, and dosing was begun twice a day for 22 days. The animals were weighed daily and monitored for health throughout the experimental period. Tumor diameters were measured twice a week using vernier calipers.\nTumor volume V was calculated as V=0.5×a×b^2, with a and b denoting the long and short diameters of the tumor, respectively.\nThe tumor suppression efficacy of the compound was evaluated by relative tumor proliferation rate T/C (%). Relative tumor proliferation rate T/C (%)=Vt/Vc×100% (Vt: mean tumor volume of the treatment group; Vc: mean tumor volume of the negative control group). Vt and Vc were data taken from the same day."}, "A2A receptor": {"target": "A2A receptor (Homo sapiens (Human), UniProt P29274)", "sequence (P29274 whole entry)": "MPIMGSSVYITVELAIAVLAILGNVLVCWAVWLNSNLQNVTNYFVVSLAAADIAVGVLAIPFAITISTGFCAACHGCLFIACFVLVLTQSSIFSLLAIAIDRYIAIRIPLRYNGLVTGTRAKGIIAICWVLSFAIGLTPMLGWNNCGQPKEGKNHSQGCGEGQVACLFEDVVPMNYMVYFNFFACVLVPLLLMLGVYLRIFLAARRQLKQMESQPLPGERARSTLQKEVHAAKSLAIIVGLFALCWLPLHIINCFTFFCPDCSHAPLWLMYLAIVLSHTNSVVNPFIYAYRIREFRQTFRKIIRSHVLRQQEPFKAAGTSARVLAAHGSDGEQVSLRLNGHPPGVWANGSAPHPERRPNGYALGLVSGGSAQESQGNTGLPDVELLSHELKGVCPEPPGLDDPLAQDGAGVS", "test": "Inhibitory activity on A2A receptor, cAMP assay in CHO-K1/ADORA2A/Gα15 cells (Test Example 1)", "type": "cell-based", "details": "NECA 50 nM", "description": "(§1) CHO-K1/ADORA2A/Gα15 (GenScript, M00246) and CHO-K1/ADORA2B/Gα15 (GenScript, M00329) cells were cultured in Ham's F-12 (Gibco, 31765092) medium with medium conditions containing 10% FBS, 200 μg/mL Zeocin (bleomycin) and 100 μg/mL Hygromycin B (thaumatin B) or 10% FBS, 400 μg/mL G418 and 100 μg/mL Hygromycin B. Details of the culture conditions are described in the corresponding instructions."}, "A2B receptor": {"target": "A2B receptor (Homo sapiens (Human), UniProt P29275)", "sequence (P29275 whole entry)": "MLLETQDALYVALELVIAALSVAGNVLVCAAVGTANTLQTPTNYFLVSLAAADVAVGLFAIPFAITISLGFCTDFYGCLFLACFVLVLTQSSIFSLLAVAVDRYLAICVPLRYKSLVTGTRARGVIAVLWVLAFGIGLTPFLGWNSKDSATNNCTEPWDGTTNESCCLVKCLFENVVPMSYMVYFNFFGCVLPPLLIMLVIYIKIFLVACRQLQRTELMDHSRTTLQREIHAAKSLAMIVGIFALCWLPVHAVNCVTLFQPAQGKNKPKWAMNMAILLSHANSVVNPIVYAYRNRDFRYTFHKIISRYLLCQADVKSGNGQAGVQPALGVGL", "test": "Inhibitory activity on A2B receptor, cAMP assay in CHO-K1/ADORA2B/Gα15 cells (Test Example 1)", "type": "cell-based", "details": "NECA 10 nM", "description": "as §1"}, "[3]": {"test": "Dynamic Vapor Sorption (DVS)", "type": "physicochemical"}, "[4]": {"test": "Mixing and shaking in solvents, XRPD test", "type": "physicochemical", "text": "[…] After centrifugation, the supernatant was discarded, and the solids were placed in an oven to dryness and subjected to the XRPD test."}, "[5]": {"test": "Crystal competition experiment, XRPD", "type": "physicochemical", "details": "mixed forms I, IV, V, VI, VII shaken in different solvents for 24 h", "description": "In order to detect the stablest crystal form of Compound X, crystalline competition experiments were carried out. 10 mg of free alkali crystal I, free alkali crystal IV, free alkali crystal form V, free alkali crystal form VI, and free alkali crystal form VII were weighed, respectively, and mixed thoroughly. 20 mg of the mixed crystal was weighed in a glass vial, to which 1 mL of solvent in Table 14 was added respectively, and the resultant was mixed and shaken at room temperature for 24 h, and centrifugated. The precipitate was taken, dried and then measured by XRPD."}, "[6]": {"test": "Stability experiments of free alkali crystal form I, XRPD", "type": "physicochemical", "details": "40° C., 75% RH, lid open; 1 week, 2 weeks, 1 month, 2 months, 4 months", "text": "Samples were taken at 1 week, 2 weeks, 1 month, 2 months, and 4 months for XRPD test, respectively."}, "[7]": {"test": "Differential scanning calorimetry (DSC), crystal form stability", "type": "physicochemical", "details": "may be transformed into free alkali crystal form I during warming up", "text": "As one of the embodiments, DSC plots in some embodiments of the present application were collected on a DISCOVERY DSC25 differential scanning calorimeter with the test parameters shown in Table 11."}, "[8]": {"details": "intravenous (tail vein) 2 mg/kg, read-out: Area under the curve AUC0-t"}, "[9]": {"details": "intravenous (tail vein) 2 mg/kg"}, "[10]": {"details": "po, gavage 10 mg/kg, read-out: Area under the curve AUClast"}}, "note": "Like-named read-outs stand apart in the source and are kept apart here.", "data": [{"compound": "Cc1c(C#N)cccc1-c1cc(-c2cn(Cc3cccc(C(C)(C)O)n3)nn2)nc(N)n1", "note": "[Compound D1, reference compound]", "values": [{"measurement": "AUC(0-t)", "setting": "[1]; [8]", "value": 1650, "unit": "ng·h/mL"}, {"measurement": "clearance", "setting": "[1]; [9]", "value": 19, "unit": "mL/min/kg"}, {"measurement": "Cmax", "setting": "[1]; po, gavage 10 mg/kg", "value": 5960, "unit": "ng/mL"}, {"measurement": "AUC(0-t)", "setting": "[1]; [10]", "value": 10300, "unit": "ng·h/mL"}, {"measurement": "Relative tumor proliferation rate T/C (%)", "setting": "[2]; 100 mg/kg oral", "value": 75.8, "unit": "%"}, {"measurement": "Tumor volume", "setting": "[2]; 100 mg/kg oral", "value": 902, "unit": "mm^3"}]}, {"compound": "Cc1c(C#N)cccc1-c1nc(N)c(F)c(-c2cn(Cc3cccc(C(C)(C)O)n3)nn2)n1", "note": "[Compound X, 3-(4-amino-5-fluoro-6-(1-((6-(2-hydroxypropan-2-yl)pyridin-2-yl)methyl)-1H-1,2,3-triazol-4-yl)pyrimidin-2-yl)-2-methylbenzonitrile]", "values": [{"measurement": "IC50", "setting": "A2A receptor", "value": 0.001, "unit": "mM"}, {"measurement": "IC50", "setting": "A2B receptor", "value": 0.003, "unit": "mM"}, {"measurement": "AUC(0-t)", "setting": "[1]; [8]", "value": 2250, "unit": "ng·h/mL"}, {"measurement": "clearance", "setting": "[1]; [9]", "value": 14.7, "unit": "mL/min/kg"}, {"measurement": "Cmax", "setting": "[1]; po, gavage 10 mg/kg", "value": 8730, "unit": "ng/mL"}, {"measurement": "AUC(0-t)", "setting": "[1]; [10]", "value": 10400, "unit": "ng·h/mL"}, {"measurement": "Relative tumor proliferation rate T/C (%)", "setting": "[2]; 10 mg/kg oral", "value": 75.5, "unit": "%"}, {"measurement": "Tumor volume", "setting": "[2]; 10 mg/kg oral", "value": 899, "unit": "mm^3"}, {"measurement": "Relative tumor proliferation rate T/C (%)", "setting": "[2]; 30 mg/kg oral", "value": 34.0, "unit": "%"}, {"measurement": "Tumor volume", "setting": "[2]; 30 mg/kg oral", "value": 405, "unit": "mm^3"}, {"measurement": "Relative tumor proliferation rate T/C (%)", "setting": "[2]; 100 mg/kg oral", "value": 24.0, "unit": "%"}, {"measurement": "Tumor volume", "setting": "[2]; 100 mg/kg oral", "value": 286, "unit": "mm^3"}]}, {"compound": "Cc1c(C#N)cccc1-c1nc(N)c(F)c(-c2cn(Cc3cccc(C(C)(C)O)n3)nn2)n1", "note": "[free alkali crystal form I, 3-(4-amino-5-fluoro-6-(1-((6-(2-hydroxypropan-2-yl)pyridin-2-yl)methyl)-1H-1,2,3-triazol-4-yl)pyrimidin-2-yl)-2-methylbenzonitrile]", "values": [{"measurement": "hygroscopicity", "setting": "[3]; DVS, 0% to 80% RH at 25° C.", "value": "almost no hygroscopicity"}, {"measurement": "change in mass due to absorption", "setting": "[3]; relative humidity from 0% to 80% RH at 25° C.", "value": "less than 0.2%"}, {"measurement": "Crystal form after mixing and shaking", "setting": "[4]; 50% Ethanol, 50° C., 1 day", "value": "Crystal form I"}, {"measurement": "Crystal form after mixing and shaking", "setting": "[4]; 50% Ethanol, RT, 1 day", "value": "Crystal form I"}, {"measurement": "Crystal form after mixing and shaking", "setting": "[4]; 50% Ethanol, RT, 7 days", "value": "Crystal form I"}, {"measurement": "Crystal form after mixing and shaking", "setting": "[4]; Ethanol, 50° C., 1 day", "value": "Crystal form I"}, {"measurement": "Crystal form after mixing and shaking", "setting": "[4]; Ethanol, RT, 1 day", "value": "Crystal form I"}, {"measurement": "Crystal form after mixing and shaking", "setting": "[4]; Ethanol, RT, 7 days", "value": "Crystal form I"}, {"measurement": "Crystal form after mixing and shaking", "setting": "[4]; Ethyl acetate, 50° C., 1 day", "value": "Crystal form I"}, {"measurement": "Crystal form after mixing and shaking", "setting": "[4]; Ethyl acetate, RT, 1 day", "value": "Crystal form I"}, {"measurement": "Crystal form after mixing and shaking", "setting": "[4]; Ethyl acetate, RT, 7 days", "value": "Crystal form I"}, {"measurement": "Crystal form after mixing and shaking", "setting": "[4]; Isopropanol, 50° C., 1 day", "value": "Crystal form I"}, {"measurement": "Crystal form after mixing and shaking", "setting": "[4]; Isopropanol, RT, 1 day", "value": "Crystal form I"}, {"measurement": "Crystal form after mixing and shaking", "setting": "[4]; Isopropanol, RT, 7 days", "value": "Crystal form I"}, {"measurement": "Crystal form after mixing and shaking", "setting": "[4]; Methyl tert-butyl ether, 50° C., 1 day", "value": "Crystal form I"}, {"measurement": "Crystal form after mixing and shaking", "setting": "[4]; Methyl tert-butyl ether, RT, 1 day", "value": "Crystal form I"}, {"measurement": "Crystal form after mixing and shaking", "setting": "[4]; Methyl tert-butyl ether, RT, 7 days", "value": "Crystal form I"}, {"measurement": "Crystal form after mixing and shaking", "setting": "[4]; Water, 50° C., 1 day", "value": "Crystal form I"}, {"measurement": "Crystal form after mixing and shaking", "setting": "[4]; Water, RT, 1 day", "value": "Crystal form I"}, {"measurement": "Crystal form after mixing and shaking", "setting": "[4]; Water, RT, 7 days", "value": "Crystal form I"}, {"measurement": "change of crystal form after mixing and shaking", "setting": "[4]; any of the seven solvents shown", "value": "did not change"}, {"measurement": "Crystal form after mixing and shaking", "setting": "[4]; n-Heptane, 50° C., 1 day", "value": "Crystal form I"}, {"measurement": "Crystal form after mixing and shaking", "setting": "[4]; n-Heptane, RT, 1 day", "value": "Crystal form I"}, {"measurement": "Crystal form after mixing and shaking", "setting": "[4]; n-Heptane, RT, 7 days", "value": "Crystal form I"}, {"measurement": "stablest crystal form determined by competition", "setting": "[5]", "value": "stable crystal form"}, {"measurement": "physical stability (XRPD)", "setting": "[6]", "value": "physically stable"}]}, {"compound": "Cc1c(C#N)cccc1-c1nc(N)c(F)c(-c2cn(Cc3cccc(C(C)(C)O)n3)nn2)n1", "note": "[free alkali crystal form IV, 3-(4-amino-5-fluoro-6-(1-((6-(2-hydroxypropan-2-yl)pyridin-2-yl)methyl)-1H-1,2,3-triazol-4-yl)pyrimidin-2-yl)-2-methylbenzonitrile]", "values": [{"measurement": "crystal form stability from DSC plot", "setting": "[7]", "value": "sub-stable crystal form"}]}]}
